Experimental data published in ChEMBL document CHEMBL5113542, “Highly Potent and Oral Macrocyclic Peptides as a HIV-1 Protease Inhibitor: mRNA Display-Derived Hit-to-Lead Optimization” (ACS Med Chem Lett, 2022).
Starred links: 1 amine or outer side, 2 acyl side, 3 side chain; linkers in the order of their positions; H or OH if unused. Positions of bridges follow the written chain, without caps; N, C: chain ends. Non-standard residues stand in square brackets, D forms with d. Residues, ends and D or L forms follow the SMILES beside them. X3 = O=C([C@H](CCC1=CCC(F)(F)CC1)N[*:1])[*:2]; Trp(1-Me) = Cn1cc(C[C@H](N)C(=O)O)c2ccccc21; 1Nal = N[C@@H](Cc1cccc2ccccc12)C(=O)O; NHCH2CH2SCH2CO = O=C(CSCCN[*:1])[*:2]; NMeF = CN[C@@H](Cc1ccccc1)C(=O)O; hCha = N[C@@H](CCC1CCCCC1)C(=O)O; hPhe = N[C@@H](CCc1ccccc1)C(=O)O; X1 = CC(C)(CN[*:1])SCC(=O)[*:2]; X2 = CC(C)(SCCN[*:1])C(=O)[*:2]; Pen = CC(C)(S)[C@H](N)C(=O)O; αMeV = CC(C)[C@](C)(N)C(=O)O; αMeP = C[C@@]1(C(=O)O)CCCN1

Columns and labels:
[1] = Half-life in Sprague-Dawley rat at 2 umol/kg, po or 1 umol/kg, iv administered as single dose by LC-MS/MS analysis; format: ADME, organism-based; details: in vivo, dose 2 µmol/kg
[2] = target: Human immunodeficiency virus type 1 protease (Human immunodeficiency virus 1, UniProt Q72874); assay: Inhibition of HIV-1 protease using EDANS-RESGIFLETSKR-DABCYL as substrate preincubated for 15 mins followed by substrate addition and measured after 60 mins by fluorescence based assay
[3] = Unbound fraction in rat serum measured after 24 hrs by equilibrium dialysis based LC-MS/MS analysis; format: ADME, cell-free
[4] = Metabolic stability in human liver microsomes incubated for 30 mins in the presence of NADPH by LC-MS/MS analysis; format: ADME, Microsome; details: read-out: Stability
[5] = Metabolic stability in rat liver microsomes incubated for 30 mins in the presence of NADPH by LC-MS/MS analysis; format: ADME, Microsome; details: read-out: Stability
[6] = test system: Human immunodeficiency virus 1; assay: Anti-HIV activity against HIV-1 3B strain infected in human MT4 cells assessed as inhibition of virus-induced cell death preincubated with compound for 1 hrs followed by viral infection and measured after 4 days by MTT assay; format: functional, organism-based; details: Human immunodeficiency virus 1, 3B
[7] = Volume of distribution at steady state in Sprague-Dawley rat at 2 umol/kg, po or 1 umol/kg, iv administered as single dose by LC-MS/MS analysis; format: ADME, organism-based; details: in vivo, dose 1 µmol/kg
[8] = Oral bioavailability in Sprague-Dawley rat at 2 umol/kg administered as single dose by LC-MS/MS analysis; format: ADME, organism-based; details: in vivo, at 2 µmol/kg
[9] = Metabolic stability in human liver S9 fraction incubated for 60 mins by LC-MS/MS analysis; format: ADME, subcellular; details: read-out: Stability
[10] = Solubility of the compound at pH 6.8 incubated for 1 hrs in the presence of taurocholic acid by UHPLC/MS analysis; format: physicochemical; details: medium containing taurocholic acid

Row | Structure (SMILES) | half-life [1] | IC50 [2] | fraction unbound at 24 h [3] | remaining at 0.5 h [4] | remaining at 0.5 h [5] | EC50 [6] | Vdss [7] | bioavailability [8] | remaining at 1 h [9] | solubility at 1 h [10]
1 | CC(C)C[C@@H]1NC(=O)[C@H](C(C)C)NC(=O)[C@]2(C)CCCN2C(=O)[C@H](C(C)C)NC(=O)[C@H](Cc2ccccc2)NC(=O)CSCCNC(=O)[C@H](C)NC(=O)[C@H](Cc2ccccc2)N(C)C(=O)[C@H](CC(C)C)NC(=O)[C@H](CCC2CCCCC2)NC1=O (cyclo(A[NHCH2CH2SCH2CO]FV[αMeP]VL[hCha]L[NMeF])) | 1.6 h | 0.28 nM | 0.001 | 8% | 53% | 24 nM | 0.8 L/kg | – | – | –
2 | CC(C)C[C@@H]1NC(=O)[C@H](C(C)C)NC(=O)[C@]2(C)CCCN2C(=O)[C@H](C(C)C)NC(=O)[C@H](Cc2ccccc2)NC(=O)CSC(C)(C)CNC(=O)[C@H](C)NC(=O)[C@H](Cc2ccccc2)N(C)C(=O)[C@H](CC(C)C)NC(=O)[C@H](CCC2CCCCC2)NC1=O (cyclo(A[X1]FV[αMeP]VL[hCha]L[NMeF])) | 2 h | 0.62 nM | 0.001 | 20% | 60% | 11 nM | 0.7 L/kg | 0.2% | – | –
3 | CC(C)C[C@@H]1NC(=O)[C@H](C(C)C)NC(=O)[C@]2(C)CCCN2C(=O)[C@H](C(C)C)NC(=O)[C@H](Cc2ccccc2)NC(=O)C(C)(C)SCCNC(=O)[C@H](C)NC(=O)[C@H](Cc2ccccc2)N(C)C(=O)[C@H](CC(C)C)NC(=O)[C@H](CCC2CCCCC2)NC1=O (cyclo(A[X2]FV[αMeP]VL[hCha]L[NMeF])) | – | 15.3 nM | – | 28% | 46% | 150 nM | – | – | – | –
4 | CC(C)C[C@@H]1NC(=O)[C@H](C(C)C)NC(=O)[C@@H]2CCCN2C(=O)[C@H](C(C)C)NC(=O)[C@H](Cc2ccccc2)NC(=O)CSCCNC(=O)CNC(=O)[C@H](Cc2ccccc2)N(C)C(=O)[C@H](CC(C)C)NC(=O)[C@H](Cc2c[nH]c3ccccc23)NC1=O (cyclo(FVPVLWL[NMeF]G[NHCH2CH2SCH2CO])) | 0.7 h | 0.99 nM | 0.011 | 3% | 29% | 960 nM | 0.1 L/kg | – | 23% | 26 µM
5 | CC(C)C[C@@H]1NC(=O)[C@H](C(C)C)NC(=O)[C@@H]2CCCN2C(=O)[C@H](C(C)C)NC(=O)[C@H](Cc2ccccc2)NC(=O)CSCCNC(=O)[C@H](Cc2ccccc2)N(C)C(=O)[C@H](CC(C)C)NC(=O)[C@H](Cc2c[nH]c3ccccc23)NC1=O (cyclo(FVPVLWL[NMeF][NHCH2CH2SCH2CO])) | – | 8.05 nM | – | – | – | 610 nM | – | – | – | –
6 | CC(C)C[C@@H]1NC(=O)[C@H](C(C)C)NC(=O)[C@@H]2CCCN2C(=O)[C@H](C(C)C)NC(=O)[C@H](Cc2ccccc2)NC(=O)CSCCNC(=O)[C@H](Cc2ccccc2)N(C)C(=O)[C@H](CC(C)C)NC(=O)[C@H](Cc2cn(C)c3ccccc23)NC1=O (cyclo(FVPVL[Trp(1-Me)]L[NMeF][NHCH2CH2SCH2CO])) | – | 7.86 nM | – | – | – | 1500 nM | – | – | – | –
7 | CC(C)C[C@@H]1NC(=O)[C@H](C(C)C)NC(=O)[C@]2(C)CCCN2C(=O)[C@H](C(C)C)NC(=O)[C@H](Cc2ccccc2)NC(=O)CSCCNC(=O)[C@H](Cc2ccccc2)N(C)C(=O)[C@H](CC(C)C)NC(=O)[C@H](CCC2=CCC(F)(F)CC2)NC1=O (cyclo(FV[αMeP]VL[X3]L[NMeF][NHCH2CH2SCH2CO])) | – | 0.21 nM | – | – | – | 10 nM | – | – | – | –
8 | CC(C)C[C@@H]1NC(=O)[C@H](C(C)C)NC(=O)[C@]2(C)CCCN2C(=O)[C@H](C(C)C)NC(=O)[C@H](Cc2ccccc2)NC(=O)CSCCNC(=O)[C@H](Cc2ccccc2)NC(=O)[C@H](Cc2ccccc2)N(C)C(=O)[C@H](CC(C)C)NC(=O)[C@H](CCC2CCCCC2)NC1=O (cyclo(FV[αMeP]VL[hCha]L[NMeF]F[NHCH2CH2SCH2CO])) | – | 2.32 nM | – | – | – | 56 nM | – | – | – | –
9 | CC(C)C[C@@H]1NC(=O)[C@H](C(C)C)NC(=O)[C@]2(C)CCCN2C(=O)[C@H](C(C)C)NC(=O)[C@H](Cc2ccccc2)NC(=O)CSCCNC(=O)CNC(=O)[C@H](Cc2ccccc2)N(C)C(=O)[C@H](CC(C)C)NC(=O)[C@H](CCC2CCCCC2)NC1=O (cyclo(FV[αMeP]VL[hCha]L[NMeF]G[NHCH2CH2SCH2CO])) | – | 0.37 nM | – | – | – | 29 nM | – | – | 85% | –
10 | CC(C)C[C@@H]1NC(=O)[C@H](C(C)C)NC(=O)[C@]2(C)CCCN2C(=O)[C@H](C(C)C)NC(=O)[C@H](Cc2ccccc2)NC(=O)CSCCNC(=O)[C@H](CC(C)C)NC(=O)[C@H](Cc2ccccc2)N(C)C(=O)[C@H](CC(C)C)NC(=O)[C@H](CCC2CCCCC2)NC1=O (cyclo(FV[αMeP]VL[hCha]L[NMeF]L[NHCH2CH2SCH2CO])) | – | 2.3 nM | – | – | – | 62 nM | – | – | – | –
11 | CC(C)C[C@@H]1NC(=O)[C@H](C(C)C)NC(=O)[C@]2(C)CCCN2C(=O)[C@H](C(C)C)NC(=O)[C@H](Cc2ccccc2)NC(=O)CSCCNC(=O)[C@H](Cc2ccccc2)N(C)C(=O)[C@H](CC(C)C)NC(=O)[C@H](CCC2CCCCC2)NC1=O (cyclo(FV[αMeP]VL[hCha]L[NMeF][NHCH2CH2SCH2CO])) | – | 0.29 nM | – | – | – | 12 nM | – | – | – | –
12 | CC(C)C[C@@H]1NC(=O)[C@H](C(C)C)NC(=O)[C@]2(C)CCCN2C(=O)[C@H](C(C)C)NC(=O)[C@H](Cc2ccccc2)NC(=O)CSCCNC(=O)[C@H](Cc2ccccc2)N(C)C(=O)[C@H](CC(C)C)NC(=O)[C@H](CCc2ccccc2)NC1=O (cyclo(FV[αMeP]VL[hPhe]L[NMeF][NHCH2CH2SCH2CO])) | – | 0.45 nM | – | – | – | 28 nM | – | – | – | –
13 | CC(C)C[C@@H]1NC(=O)[C@H](C(C)C)NC(=O)[C@@H]2CCCN2C(=O)[C@H](C(C)C)NC(=O)[C@H](Cc2ccccc2)NC(=O)CSCCNC(=O)[C@H](Cc2ccccc2)N(C)C(=O)[C@H](CC(C)C)NC(=O)[C@H](Cc2cccc3ccccc23)NC1=O (cyclo([1Nal]L[NMeF][NHCH2CH2SCH2CO]FVPVL)) | – | 0.68 nM | – | – | – | 320 nM | – | – | 46% | –
14 | CC(C)C[C@@H]1NC(=O)[C@](C)(C(C)C)NC(=O)[C@@H]2CCCN2C(=O)[C@H](C(C)C)NC(=O)[C@H](Cc2ccccc2)NC(=O)CSCCNC(=O)[C@H](Cc2ccccc2)N(C)C(=O)[C@H](CC(C)C)NC(=O)[C@H](Cc2cccc3ccccc23)NC1=O (cyclo([1Nal]L[NMeF][NHCH2CH2SCH2CO]FVP[αMeV]L)) | – | 0.44 nM | – | – | – | 120 nM | – | – | 69% | –
15 | CC(C)C[C@@H]1NC(=O)[C@H](C(C)C)NC(=O)[C@]2(C)CCCN2C(=O)[C@H](C(C)C)NC(=O)[C@H](Cc2ccccc2)NC(=O)CSCCNC(=O)[C@H](Cc2ccccc2)N(C)C(=O)[C@H](CC(C)C)NC(=O)[C@H](Cc2cccc3ccccc23)NC1=O (cyclo([1Nal]L[NMeF][NHCH2CH2SCH2CO]FV[αMeP]VL)) | – | 0.78 nM | – | – | – | 30 nM | – | – | 86% | –
16 | COC(=O)[C@H]1NC(=O)[C@H](C)NC(=O)[C@H](Cc2ccccc2)N(C)C(=O)[C@H](CC(C)C)NC(=O)[C@H](CCC2CCCCC2)NC(=O)[C@H](CC(C)C)NC(=O)[C@H](C(C)C)NC(=O)[C@]2(C)CCCN2C(=O)[C@H](C(C)C)NC(=O)[C@H](Cc2ccccc2)NC(=O)CSC1(C)C ({CH2CO}-FV[αMeP]VL[hCha]L[NMeF]A[Pen]-OMe; thioether N-10) | 3.9 h | 3.52 nM | 0.001 | 23% | 63% | 37 nM | 1.9 L/kg | 3.3% | – | 10 µM
